The target in one assay is T1, M4 muscarinic receptor (Homo sapiens, UniProt P08173).
T1 construct: membranes
T1 sequence (P08173 1-479): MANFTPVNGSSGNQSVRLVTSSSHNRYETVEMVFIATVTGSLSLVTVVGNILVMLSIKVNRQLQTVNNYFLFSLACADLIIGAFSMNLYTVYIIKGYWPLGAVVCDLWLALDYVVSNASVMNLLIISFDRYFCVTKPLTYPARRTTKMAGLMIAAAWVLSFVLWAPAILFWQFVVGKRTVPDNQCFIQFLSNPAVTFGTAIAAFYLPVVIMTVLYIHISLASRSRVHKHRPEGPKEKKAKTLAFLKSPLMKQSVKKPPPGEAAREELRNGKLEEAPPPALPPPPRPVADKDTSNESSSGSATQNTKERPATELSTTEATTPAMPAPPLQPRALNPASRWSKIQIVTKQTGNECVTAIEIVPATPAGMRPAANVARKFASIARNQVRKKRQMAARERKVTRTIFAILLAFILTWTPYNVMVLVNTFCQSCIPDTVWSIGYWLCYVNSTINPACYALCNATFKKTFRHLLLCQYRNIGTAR
The experiment in a line: [3H]NMS competition binding, membranes from CHO cells expressing M4. On the procedure:
(§1) Cells were cultured as described previously by Randakova et al.[33]. […] The medium was supplemented with 5 mM butyrate for the last 24 h of culture to increase receptor expression. Cells were washed with (phosphate-buffered saline (PBS), mechanically harvested by scraper and centrifugated 1000 × g for 5 min. Cell pellets were kept at − 80 °C.
(§2) Membranes were prepared as described previously by Randakova et al.[33]. Cells harvested from twenty 100 mm petri dishes (CHO) or 30 ml of cell suspension (Sf9) were suspended in 20 ml of ice-cold incubation medium (100 mM NaCl, 20 mM Na-HEPES, 10 mM MgCl2, pH 7.4) supplemented with 10 mM EDTA and homogenized on ice by two 30‐s strokes using a Polytron homogenizer (Ultra-Turrax; Janke & Kunkel GmbH & Co. KG, IKA-Labortechnik, Staufen, Germany) with a 30 s pause between strokes. Cell homogenates were centrifuged for 5 min at 1000×g to remove whole cells and cell nuclei. The resulting supernatants were centrifuged for 30 min at 30,000×g. Pellets were suspended in a fresh incubation medium, incubated on ice for 30 min, and centrifuged again. The resulting membrane pellets were kept at − 80 °C until assayed within 10 weeks.
(§3) Non-specific binding was determined in the presence of 10 μM unlabelled atropine. Incubations were terminated by filtration through filtration plates multiscreen 96 well Harvest (Merck Millipore) using a Brandel cell harvester (Brandel, Gaithersburg, MD, USA). Filtration plates were dried in a microwave oven, and then 40 μl of liquid scintillator Rotiscint eco plus (Roth) was added. The filtration plates were counted in the Microbeta scintillation counter (PerkinElmer). […] The inhibition constant KI was calculated according to Eq. (2).
(§4) Inhibition constants KI were calculated according to Eq. (2).2 KI=IC50/1+D/KD where IC50 is calculated according to Eq.

The target in the next assay is T2, M1 muscarinic receptor (Homo sapiens, UniProt P11229).
T2 construct: membranes
T2 sequence (P11229 1-460): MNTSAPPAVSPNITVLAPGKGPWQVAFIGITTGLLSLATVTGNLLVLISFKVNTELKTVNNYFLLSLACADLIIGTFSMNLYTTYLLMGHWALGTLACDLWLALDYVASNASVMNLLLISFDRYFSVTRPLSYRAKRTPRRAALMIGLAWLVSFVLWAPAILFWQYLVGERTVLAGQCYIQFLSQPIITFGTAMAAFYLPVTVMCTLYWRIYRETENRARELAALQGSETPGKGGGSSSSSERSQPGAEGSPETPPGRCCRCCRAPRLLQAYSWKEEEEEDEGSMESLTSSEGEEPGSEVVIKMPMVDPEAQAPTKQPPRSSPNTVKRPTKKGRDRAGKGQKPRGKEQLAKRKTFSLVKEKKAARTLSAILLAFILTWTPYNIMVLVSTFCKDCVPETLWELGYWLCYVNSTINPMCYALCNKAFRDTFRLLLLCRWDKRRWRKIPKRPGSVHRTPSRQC
The experiment in a line: [3H]NMS competition binding, membranes from CHO cells expressing M1. The note with it: competition with [3H]NMS, mean ± SD, three experiments, read-out: Binding affinity, negative logarithm of Ki (converted). On the procedure: as §1, §2, §3, §4

The target of a further assay is T3, M3 muscarinic receptor (Homo sapiens, UniProt P20309).
T3 construct: membranes
The experiment in a line: [3H]NMS competition binding, membranes from CHO cells expressing M3. As to conditions: competition with [3H]NMS, mean ± SD, three experiments, read-out: Binding affinity, negative logarithm of Ki (converted). The procedure:
as §1, §2, §3, §4

The next assay deals with T4, M2 muscarinic receptor (Homo sapiens, UniProt P08172).
T4 construct: membranes
T4 sequence (P08172 1-466): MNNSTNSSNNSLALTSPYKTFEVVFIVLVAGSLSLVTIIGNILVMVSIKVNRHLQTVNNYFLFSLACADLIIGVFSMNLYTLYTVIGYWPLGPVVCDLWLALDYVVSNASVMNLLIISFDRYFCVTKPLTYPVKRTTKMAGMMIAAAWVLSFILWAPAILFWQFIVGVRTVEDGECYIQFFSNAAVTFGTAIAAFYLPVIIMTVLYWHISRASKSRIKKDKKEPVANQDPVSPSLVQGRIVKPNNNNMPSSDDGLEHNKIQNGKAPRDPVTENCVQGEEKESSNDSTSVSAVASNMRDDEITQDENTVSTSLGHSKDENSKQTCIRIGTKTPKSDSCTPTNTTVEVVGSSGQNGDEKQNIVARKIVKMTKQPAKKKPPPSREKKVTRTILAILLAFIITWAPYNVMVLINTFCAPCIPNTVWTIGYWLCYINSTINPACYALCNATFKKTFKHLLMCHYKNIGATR
The experiment in a line: [3H]NMS competition binding, membranes from CHO cells expressing M2. On the procedure:
as §1, §2, §3, §4

A further assay has as its target T5, M5 muscarinic receptor (Homo sapiens, UniProt P08912).
T5 construct: membranes
T5 sequence (P08912 1-532): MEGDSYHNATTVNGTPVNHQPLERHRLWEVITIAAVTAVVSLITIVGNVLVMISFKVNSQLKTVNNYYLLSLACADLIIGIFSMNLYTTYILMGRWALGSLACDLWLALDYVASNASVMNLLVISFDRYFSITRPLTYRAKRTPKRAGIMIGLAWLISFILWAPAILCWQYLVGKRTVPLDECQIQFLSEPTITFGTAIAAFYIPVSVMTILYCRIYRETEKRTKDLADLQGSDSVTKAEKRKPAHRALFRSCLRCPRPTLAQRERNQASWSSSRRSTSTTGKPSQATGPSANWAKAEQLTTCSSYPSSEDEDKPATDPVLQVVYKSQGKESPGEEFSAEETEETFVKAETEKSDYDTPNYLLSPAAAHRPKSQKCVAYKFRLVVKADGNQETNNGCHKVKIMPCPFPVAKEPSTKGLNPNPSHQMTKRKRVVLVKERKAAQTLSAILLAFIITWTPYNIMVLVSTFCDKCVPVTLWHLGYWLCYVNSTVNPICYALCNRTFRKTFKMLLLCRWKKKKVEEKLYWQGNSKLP
Put plainly: [3H]NMS competition binding, membranes from CHO cells expressing M5. On the procedure: as §1, §2, §3, §4

A further assay has as its target T6, M2 receptor (Homo sapiens, UniProt P08172).
T6 sequence (P08172 1-466): T4 sequence (P08172 1-466)
Put plainly: Agonist-stimulated GTPγ[35S] binding to Sf9 membranes expressing M2 receptor and individual Gαi/o. The format is biochemical. Also noted: host or cells: Sf9 insect cells, baculovirus (pFastBac1 / Bac-to-Bac); membranes. The note with it: for Activation of individual Gi/o Gα types: M2 with GαoA, GαoB, Gαi1, Gαi2, Gαi3. On the procedure:
Baculoviral stocks for expression of M2 receptor and individual Gα-subunits of Gi/o G-proteins (GαoA, GαoB, Gαi1, Gαi2, Gαi3) in SF9 cells were generated according to Bac-to-Bac® baculovirus expression system—user guide (https://assets.thermofisher.com/TFS-Assets/LSG/manuals/MAN0000414_BactoBacExpressionSystem_UG.pdf). […] After 96 h at 27 °C, baculoviral viral particles released into the medium were harvested. After centrifugation at 500×g for 10 min to remove detached cells and cell debris, baculoviral stock P0 was ready for amplification. Suspension of Sf9 cells at density 2 × 10^6 cells per ml was infected by baculoviral stock P0 in ratio 1:1000 and after 72 h of growth (in a shaking incubator at 135 rpm and 27 °C) the amplified baculoviral stock P1 was harvested. The cell suspension was centrifugated at 500×g for 10 min to remove cells and cell debris and the supernatant containing a high level of baculoviral particles P1 was collected. FBS to the concentration of 0.5% was added and the stock was stored at 4 °C, protected from light for up to 6 months. For the quantification of baculoviral particles, a plaque assay was used.
Cells were grown in suspension culture in 250 ml Erlenmeyer flasks in Sf-900™ III serum-free medium in an aerated shaking incubator at 27 °C and 135 rpm. Cells were maintained at the density of 1–4 × 10^6 cells per ml. Sf9 cells at the density 2 × 10^6 were co-infected with baculoviral stock for the M2 receptor and a particular Gi/o Gα in the ratio (1:10). […] Infected cells were harvested by centrifugation 1000×g for 10 min. Cell pellets were kept at − 80 °C.
as §2
Agonist stimulated GTPγ[^35S]binding to membranes from Sf9 cells expressing the M2 receptors in a combination with α-subunit of given Gi/o type (GαoA, GαoB, Gαi1, Gαi2, Gαi3) was measured in 96-well plates in a final volume of 200 µl of incubation medium described above containing 500 pM of GTPγ[^35S] […] Nonspecific binding was determined in the presence of 1 µM nonlabelled GTPγS. Incubations were terminated and processed as described above. Parameters of functional response were calculated according to Eq. (3) after subtraction of non-specific binding.
The basal value of GTPγ[^35S] binding was determined in the absence of the agonist. After subtraction of non-specific binding determined in the presence of 10 μM nonlabelled GTPγS, GTPγ[^35S]binding was divided by the basal value and expressed as folds over basal. […] Then Eq. (3) was fitted to the data using GraphPad. Obtained EMAX and EC50 values were used to calculate RAi values using Eq. (7). To determine τ and KA of the functional responses system EMAX was determined as described earlier. Basal values were subtracted and functional responses were expressed as fractions of system EMAX. […] Obtained τ and KA values were used to calculate the bias factor according to Eq. (8), see below, for each experiment.
Equation (4) was fitted to data by the two-step procedure described earlier[61]
(GTPγS is a poorly hydrolysed GTP analogue; its binding reports G protein activation.)

Here are results for six compounds from publication PMC11053168, “Agonist-selective activation of individual G-proteins by muscarinic receptors” (Scientific Reports, 2024).

Each structure is given as a SMILES string. Like-named read-outs stand apart in the source and are kept apart here. Some results are limits rather than exact numbers.

T3 sequence (P20309 whole entry): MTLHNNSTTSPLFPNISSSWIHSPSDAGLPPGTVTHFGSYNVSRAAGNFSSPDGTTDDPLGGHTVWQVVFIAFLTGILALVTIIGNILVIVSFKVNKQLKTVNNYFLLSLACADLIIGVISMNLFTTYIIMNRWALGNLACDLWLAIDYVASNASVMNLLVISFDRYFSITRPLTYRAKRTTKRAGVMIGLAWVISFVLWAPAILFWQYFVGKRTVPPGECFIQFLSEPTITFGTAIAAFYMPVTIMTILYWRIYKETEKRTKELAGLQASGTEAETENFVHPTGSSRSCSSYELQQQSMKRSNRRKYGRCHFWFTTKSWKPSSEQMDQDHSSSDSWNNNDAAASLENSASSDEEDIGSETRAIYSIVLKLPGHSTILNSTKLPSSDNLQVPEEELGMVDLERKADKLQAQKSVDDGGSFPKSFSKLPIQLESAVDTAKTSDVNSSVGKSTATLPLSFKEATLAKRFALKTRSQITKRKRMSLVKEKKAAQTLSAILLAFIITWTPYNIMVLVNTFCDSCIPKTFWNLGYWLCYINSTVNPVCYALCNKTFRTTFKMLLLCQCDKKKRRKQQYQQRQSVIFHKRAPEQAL

For orientation: Ki means a dissociation constant, usually derived from enzyme kinetics or from competition with a known ligand. For the compound `c1csc(CN2CCOCC2)c1` [JB-12-1], the Ki on M4 muscarinic receptor (M4, competition with [3H]NMS, mean ± SD, three experiments, read-out: Binding affinity, negative logarithm of Ki (converted)) was over 1000 µM; at M1 muscarinic receptor it was over 1000 µM; on M3 muscarinic receptor it was over 1000 µM; on M2 muscarinic receptor (M2, competition with [3H]NMS, mean ± SD, three experiments, read-out: Binding affinity, negative logarithm of Ki (converted)), 302 µM; on M5 muscarinic receptor (M5, competition with [3H]NMS, mean ± SD, three experiments, read-out: Binding affinity, negative logarithm of Ki (converted)) it was over 1000 µM.
`COC(=O)C1=CCC[N+](C)(Cc2cccs2)C1` (centres unmarked) [JB-13-2]: the Ki at M4 muscarinic receptor is 22.9 µM; on M1 muscarinic receptor, 42.7 µM; at M3 muscarinic receptor, 126 µM; on M2 muscarinic receptor, 9.55 µM; on M5 muscarinic receptor it was 97.7 µM.
For `C[N+](C)(C)CC#CCOC(=O)Nc1cccc(Cl)c1.[Cl-]` [Mc-Neil A343, reference compound], on M2 receptor (M2, relative to carbachol), the “Bias according to RAi, Gαi2 vs GαoB” value is given as 2.3 ×. For the same compound, the “Activation of individual Gi/o Gα types” value on M2 receptor was “activated all Gi/o Gα”.
For `Clc1ccc2c(c1)N=C(N1CCNCC1)c1ccccc1N2` [NDMC, reference compound], the “Activation of individual Gi/o Gα types” value at M2 receptor is “activated all Gi/o Gα”.
Turning to `C[N+](C)(C)CC#CCOC1=NOCC1` [iperoxo, reference compound], at M2 receptor (M2, relative to carbachol), the “Bias according to RAi, Gαi3 vs GαoA” value is 2.5 times. Besides, the “Activation of individual Gi/o Gα types” value on M2 receptor was “activated all Gi/o Gα”.
`O=C1CCCN1CC#CCN1CCCC1` [oxotremorine, reference compound]: the “Bias according to RAi, Gαi2 vs Gαi3” value at M2 receptor (M2, relative to carbachol) is recorded as 2 ×. Also, the “Activation of individual Gi/o Gα types” value at M2 receptor is recorded as “activated all Gi/o Gα”.
